Experimental data from ChEMBL document CHEMBL1129295, “Studies of cardiotonic agents. 8. Synthesis and biological activities of optically active 6-(4-(benzylamino)-7-quinazolinyl)-4,5-dihydro-5-methyl-3(2H)- pyridazinone (KF15232)” (J Med Chem, 1996).

target: not listed separately; test: Inhibition of bovine arterial Phosphodiesterase 4; design: species or system Bos taurus

| IC50 [nM] | Structure (SMILES) |
| --- | --- |
| 100 | COc1ccc(C2CNC(=O)C2)cc1OC1CCCC1 (configuration not stated) [ROLIPRAM] |
| > 10000 | C[C@@H]1CC(=O)NN=C1c1ccc2c(NCc3ccccc3)ncnc2c1 |
| > 10000 | C[C@H]1CC(=O)NN=C1c1ccc2c(NCc3ccccc3)ncnc2c1 |
| > 10000 | CC1CC(=O)NN=C1c1ccc2c(NCc3ccccc3)ncnc2c1 (racemic) |
| 10000 | Cc1[nH]c(=O)c(C#N)cc1-c1ccncc1 [MILRINONE] |

target: Phosphodiesterase 3B (Bos taurus, UniProt E1BN64); test: Inhibition of bovine arterial Phosphodiesterase 3
Sequence (E1BN64 whole entry): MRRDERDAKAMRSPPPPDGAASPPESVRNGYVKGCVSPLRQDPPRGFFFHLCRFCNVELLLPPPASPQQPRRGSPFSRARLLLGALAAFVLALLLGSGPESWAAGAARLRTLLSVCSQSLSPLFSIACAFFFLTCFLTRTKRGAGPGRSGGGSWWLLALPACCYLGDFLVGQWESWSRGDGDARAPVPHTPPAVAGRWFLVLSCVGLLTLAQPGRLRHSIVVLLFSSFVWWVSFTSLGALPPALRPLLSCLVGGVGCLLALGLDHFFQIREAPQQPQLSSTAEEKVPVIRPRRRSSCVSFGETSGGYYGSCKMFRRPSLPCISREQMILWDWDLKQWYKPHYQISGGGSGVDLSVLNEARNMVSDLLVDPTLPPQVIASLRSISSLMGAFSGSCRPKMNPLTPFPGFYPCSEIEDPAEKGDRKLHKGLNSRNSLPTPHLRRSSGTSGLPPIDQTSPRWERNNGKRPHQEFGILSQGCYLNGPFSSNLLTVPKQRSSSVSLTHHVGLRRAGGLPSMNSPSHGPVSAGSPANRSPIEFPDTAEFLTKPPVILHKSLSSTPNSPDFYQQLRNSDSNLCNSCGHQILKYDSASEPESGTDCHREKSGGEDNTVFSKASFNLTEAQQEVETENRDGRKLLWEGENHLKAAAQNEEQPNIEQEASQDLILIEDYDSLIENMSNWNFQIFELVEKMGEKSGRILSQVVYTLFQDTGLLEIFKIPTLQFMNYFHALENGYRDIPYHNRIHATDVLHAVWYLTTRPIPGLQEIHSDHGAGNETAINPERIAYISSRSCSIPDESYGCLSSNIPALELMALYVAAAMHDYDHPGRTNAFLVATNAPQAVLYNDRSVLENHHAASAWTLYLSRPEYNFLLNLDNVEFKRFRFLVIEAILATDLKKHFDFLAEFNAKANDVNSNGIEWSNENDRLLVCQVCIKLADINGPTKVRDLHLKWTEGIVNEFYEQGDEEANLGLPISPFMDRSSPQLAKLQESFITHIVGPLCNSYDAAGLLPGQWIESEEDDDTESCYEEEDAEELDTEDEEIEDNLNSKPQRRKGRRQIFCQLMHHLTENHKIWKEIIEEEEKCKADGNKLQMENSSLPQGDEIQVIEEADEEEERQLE

| IC50 [nM] | Structure (SMILES) |
| --- | --- |
| 1000 | Cc1[nH]c(=O)c(C#N)cc1-c1ccncc1 [MILRINONE] |
| 100 | Nc1nc2c(ncn2[C@@H]2O[C@@H]3COP(=O)(O)O[C@H]3[C@H]2O)c(=O)[nH]1 |
